Laboratory results reported in patent US20050109704A1, “Potable water delivery system with disinfection and residual discharge unit and method” (Pure H2O Bio-Technologies, Inc., priority 2003, published 2005).
“And” between values parts separate entries of the source, which are not always exact repeats. Equal entries are not always repeated.

Experiments:
[1] = tested on: Escherichia coli, Pseudomonas aeruginosa and, Enterococcus faecalis; assay: Iodine disinfection of bacteria, summary by CT value; type: cell-based; conditions: CT values of 50 (ppm x min)
Text: (§1) At CT values of 50, the Log 10 reductions were greater than 8.0. CT is a common measurement unit referring to concentration in parts per million multiplied by time (in minutes). CFU is known as colony forming units per milliliter. […] See references: Block, S. S., 1977. Disinfection, Sterilization and Preservation. Lea & Febiger, Philadelphia. 2nd edition.

[2] = tested on: P. aeruginosa; assay: Iodine Disinfection of P. aeruginosa; type: cell-based, Pseudomonas aeruginosa; conditions: ambient (˜23° C.); for Raw counts, Average / Raw counts, Treated Rep.: undiluted/10 mL analyzed
Text: as §1

[3] = tested on: E. faecalis; assay: Iodine Disinfection of E. faecalis; type: cell-based, Enterococcus faecalis; conditions: ambient (˜23° C.)
Text: as §1

[4] = tested on: E. coli; assay: Iodine Disinfection of E. coli; type: cell-based, Escherichia coli; conditions: ambient (˜23° C.); for Raw counts, Average / Raw counts, Treated Rep.: undiluted/10 mL analyzed
Text: as §1

[5] = tested on: waterborne microbial contamination; conditions: 3-4 ppm for 12 min at 24° C. (CT value of about 48); cited from earlier work
[6] = 5 mg/L 5 min, undiluted/10 mL analyzed
[7] = 5 mg/L 10 min, undiluted/10 mL analyzed
[8] = 15 mg/L 5 min, undiluted/10 mL analyzed

II
≥ 7 logs: waterborne microbial contamination reduced [5]
171 and 168 and 185: Raw counts, Treated Rep. ([2]; 5 mg/L 5 min) | Raw counts, Treated Rep. ([4]; 5 mg/L 5 min)
>7.9 Log10: Log10 removal ([2]; 5 mg/L 10 min) | Log10 removal ([2]; 5 mg/L 15 min) | Log10 removal ([2]; 15 mg/L 5 min)
39: Raw counts, Average [3, 6]
0: Raw counts, Average ([2]; 5 mg/L 10 min) | Raw counts, Treated Rep. ([2]; 5 mg/L 10 min) | Raw counts, Average ([2]; 5 mg/L 15 min) | Raw counts, Treated Rep. ([2]; 5 mg/L 15 min) | Raw counts, Average ([2]; 15 mg/L 5 min) | Raw counts, Treated Rep. ([2]; 15 mg/L 5 min) | Raw counts, Average [3, 7] | Raw counts, Treated Rep. [3, 7] | Raw counts, Average ([3]; 5 mg/L 15 min) | Raw counts, Treated Rep. ([3]; 5 mg/L 15 min) | Raw counts, Average [3, 8] | Raw counts, Treated Rep. [3, 8] | Raw counts, Average ([4]; 5 mg/L 10 min) | Raw counts, Treated Rep. ([4]; 5 mg/L 10 min) | Raw counts, Average ([4]; 5 mg/L 15 min) | Raw counts, Treated Rep. ([4]; 5 mg/L 15 min) | Raw counts, Average ([4]; 15 mg/L 5 min) | Raw counts, Treated Rep. ([4]; 15 mg/L 5 min)
0.6 Log10/mL: Log10/mL ([3]; 5 mg/L 5 min)
>8.0 Log10: Log10 removal ([4]; 5 mg/L 10 min) | Log10 removal ([4]; 5 mg/L 15 min) | Log10 removal ([4]; 15 mg/L 5 min)
<0.1 cfu/mL: cfu/mL, Average ([2]; 5 mg/L 10 min) | cfu/mL, Average ([2]; 5 mg/L 15 min) | cfu/mL, Average ([2]; 15 mg/L 5 min) | cfu/mL, Average ([3]; 5 mg/L 10 min) | cfu/mL, Average ([3]; 5 mg/L 15 min) | cfu/mL, Average ([3]; 15 mg/L 5 min) | cfu/mL, Average ([4]; 5 mg/L 10 min) | cfu/mL, Average ([4]; 5 mg/L 15 min) | cfu/mL, Average ([4]; 15 mg/L 5 min)
175: Raw counts, Average ([2]; 5 mg/L 5 min) | Raw counts, Average ([4]; 5 mg/L 5 min)
49 and 38 and 31: Raw counts, Treated Rep. [3, 6]
1.7 × 10^1 cfu/mL: cfu/mL, Average ([2]; 5 mg/L 5 min) | cfu/mL, Average ([4]; 5 mg/L 5 min)
3.9 × 10^0 cfu/mL: cfu/mL, Average ([3]; 5 mg/L 5 min)
<−1.0 Log10/mL: Log10/mL ([2]; 5 mg/L 10 min) | Log10/mL ([2]; 5 mg/L 15 min) | Log10/mL ([2]; 15 mg/L 5 min) | Log10/mL ([3]; 5 mg/L 10 min) | Log10/mL ([3]; 5 mg/L 15 min) | Log10/mL ([3]; 15 mg/L 5 min) | Log10/mL ([4]; 5 mg/L 10 min) | Log10/mL ([4]; 5 mg/L 15 min) | Log10/mL ([4]; 15 mg/L 5 min)
6.2 Log10: Log10 removal ([3]; 5 mg/L 5 min)
1.2 Log10/mL: Log10/mL ([2]; 5 mg/L 5 min) | Log10/mL ([4]; 5 mg/L 5 min)
>7.8 Log10: Log10 removal ([3]; 5 mg/L 10 min) | Log10 removal ([3]; 5 mg/L 15 min) | Log10 removal ([3]; 15 mg/L 5 min)
5.7 Log10: Log10 removal ([2]; 5 mg/L 5 min) | Log10 removal ([4]; 5 mg/L 5 min)
greater than 8.0 Log 10: Log 10 reductions [1]
